Results published in US20150026842A1, “METHOD OF CONTROLLING SUDDEN DEATH SYNDROME WITH FLUTRIAFOL” (CHEMINOVA A/S, priority 2013, published 2015).

Assays:
[1] = tested on: Fusarium virguliforme; assay: Mycelial colony growth of Fusarium virguliforme on flutriafol-amended PDA; type: cell-based
Description: Inhibition of Fusarium virguliforme was tested in the following example:
The flutriafol composition used in the example was TOPGUARD (125 g/L flutriafol SC). Each pathogen was grown out on fresh potato dextrose agar (commercial PDA), assessed and used to seed 2× autoclaved rice for inoculums development. At 7-10 days, two infested rice grains of each pathogen (2 per pathogen type) was placed at equal distances on flutriafol-amended PDA and incubated at 27-29° C. Mycelial colony diameter from each rice grain was measured at 1, 3, 5 and 7 days from grain placement. The included tables and data sets illustrate the differences in mycelia growth in response to various concentrations of the fungicide for one of the SDS pathogen types, Fusarium virguliforme.

[2] = tested on: Sudden Death Syndrome (SDS); assay: Field trial: flutriafol applied pre-emergence to soybean for control of Sudden Death Syndrome; type: in vivo
Description: The determination of the efficacy and selectivity of flutriafol fungicide when applied pre-emergence to soybean for control of Sudden Death Syndrome (SDS) was tested in the following example:
The experiment was conducted in a Drummer silty clay loam soil with a pH of 6.8 and 3.0% organic matter. The experiment was set up as a randomized complete block with four replications. Plots were four 30 inch rows or a total of 10 ft. wide by 40 ft. long. Plot site was conventionally tilled and the trial was established on May 15, 2013, by planting NK S36-B6, a sudden death syndrome susceptible soybean variety. Seed was planted 1.5 inches deep and the seeding rate was 140,000 seeds/A. Topguard (a commercially available flutriafol SC formulation comprising 125 g/l) was applied at planting in-furrow in a 3-5 inch T-band perpendicular to the row with Teejet 4001E nozzles in a spray volume of 2 GPA. Topguard rates applied were 0.13, 0.195, 0.26 lb ai/acre (corresponding to 145.7, 218.6, 291.4 g ai/ha, respectively). These correspond to rates of 16, 24, or 32 fl oz of product/acre, respectively. One treatment of a 3-5 inch band of 32 fl oz/A Topguard was applied on May 21 as an ‘At Cracking’ application immediately prior to crop emergence. Trial was inoculated with SDS on sterile sorghum media that was applied in-furrow with a gandy box at planting at a rate of 25 ml per 20 ft of row. Data was collected from the two center rows from each plot.
Drip irrigation was installed so the trial had no moisture stress throughout the season. On August 12, 19 and 30, soybean sudden death syndrome (SDS) incidence (0-100%) and severity (0-9) were evaluated. An SDS disease index (SDS DX) was created by multiplying the % Incidence by the % Severity and dividing by 9. Soybeans were harvested on October 10 and yields were calculated and adjusted to bu/A at 13% moisture.

[3] = applied in a T-Band, August 12 and August 19

## OC(Cn1cncn1)(c1ccc(F)cc1)c1ccccc1F (racemic) [flutriafol, (RS)-2,4′-difluoro-α-(1H-1,2,4-triazol-1-ylmethyl)benzhydryl alcohol]
[1]; 0.01 ppm in PDA
  Dia (mm) 1 day: 0 mm
  Dia (mm) 3 days: 10.4 mm
  Dia (mm) 5 days: 15.6 mm
  Dia (mm) 7 days: 19.6 mm
[1]; 0.1 ppm in PDA
  Dia (mm) 1 day: 0 mm
  Dia (mm) 3 days: 10.1 mm
  Dia (mm) 5 days: 16.4 mm
  Dia (mm) 7 days: 19.8 mm
[1]; 1 ppm in PDA
  Dia (mm) 1 day: 0 mm
  Dia (mm) 3 days: 9.6 mm
  Dia (mm) 5 days: 15.3 mm
  Dia (mm) 7 days: 20 mm
[1]; 10 ppm in PDA
  Dia (mm) 1 day: 0 mm
  Dia (mm) 3 days: 7.5 mm
  Dia (mm) 5 days: 13.9 mm
  Dia (mm) 7 days: 18.1 mm
[1]; 100 ppm in PDA
  Dia (mm) 1 day: 0 mm
  Dia (mm) 3 days: 0 mm
  Dia (mm) 5 days: 0 mm
  Dia (mm) 7 days: 3 mm
[1]; 250 ppm in PDA, 27-29° C.
  Dia (mm) 1 day: 0 mm
[1]; 250 ppm in PDA
  Dia (mm) 3 days: 0 mm
  Dia (mm) 5 days: 0 mm
  Dia (mm) 7 days: 0 mm
[2]; T-band at 16, 24 or 32 oz/A, compared to the 'At Cracking' application and the untreated check
  soybean yield: trend to higher soybean yield
[2]; [3]
  Disease Index scores: numerically lower
  SDS Incidence: numerically lower
